The record followed here is ChEMBL document CHEMBL4811306, “Fused benzo[1,3]thiazine-1,2,3-triazole hybrids: Microwave-assisted one-pot synthesis, in vitro antibacterial, antibiofilm, and in silico ADME studies” (2021).

SMILES strings stand for the structures. In brackets after ≈: the same amount, converted by molar mass.

Common to all, as to type: functional
In test [1] the test system is Bacillus subtilis. As to the kind of experiment: Antibiofilm activity against Bacillus subtilis MTCC121 assessed as inhibition of biofilm formation.
Test [2] relates to Escherichia coli. As to the kind of experiment: Antibacterial activity against Escherichia coli MTCC739 assessed as inhibition of bacterial growth by standard broth microdilution method.
The test system of test [3] is Bacillus subtilis. The test is described as follows: Antibacterial activity against Bacillus subtilis MTCC121 assessed as inhibition of bacterial growth by standard broth microdilution method. (Broth dilution looks for growth in wells or tubes with falling amounts of substance.)
Test [4] has as its system Staphylococcus aureus. The test is described as follows: Antibiofilm activity against Staphylococcus aureus MTCC96 assessed as inhibition of biofilm formation.
Test [5] relates to Staphylococcus aureus. As to the kind of experiment: Antibacterial activity against Staphylococcus aureus MTCC96 assessed as inhibition of bacterial growth by standard broth microdilution method.
Test [6] has as its system Pseudomonas aeruginosa. The test is described as follows: Antibacterial activity against Pseudomonas aeruginosa assessed as inhibition of bacterial growth by standard broth microdilution method.
In test [7] the test system is Pseudomonas aeruginosa. As to the kind of experiment: Antibiofilm activity against Pseudomonas aeruginosa assessed as inhibition of biofilm formation.
For another test, the system named is Klebsiella pneumoniae. As to the kind of experiment: Antibacterial activity against Klebsiella pneumoniae assessed as inhibition of bacterial growth by standard broth microdilution method.
In test [8] the test system is Staphylococcus epidermidis. As to the kind of experiment: Antibacterial activity against Staphylococcus epidermidis MTCC435 assessed as inhibition of bacterial growth by standard broth microdilution method.
In test [9] the test system is Staphylococcus epidermidis. As to the kind of experiment: Antibiofilm activity against Staphylococcus epidermidis MTCC435 assessed as inhibition of biofilm formation.
For test [10], the system named is Escherichia coli. As to the kind of experiment: Antibiofilm activity against Escherichia coli MTCC739 assessed as inhibition of biofilm formation.
For test [11], the system named is Bacillus subtilis. The test is described as follows: Potency index, ratio of ciprofloxacin MIC to test compound MIC for antibacterial activity against Bacillus subtilis MTCC121.
In test [12] the test system is Staphylococcus epidermidis. The test is described as follows: Potency index, ratio of ciprofloxacin MIC to test compound MIC for antibacterial activity against Staphylococcus epidermidis MTCC435.

Usually MIC stands for the lowest concentration that inhibits growth of the organism. Regarding `Clc1ccccc1-c1nnn2c1-c1ccccc1SC2`, the BIC in the test on Bacillus subtilis [1] is 26.1 µg/mL; in the test on Staphylococcus aureus [4], 10.7 µg/mL; in the test on Pseudomonas aeruginosa [7] it was 48 µg/mL; in test [9], 21.2 µg/mL. In addition, the MIC was above 50 µg/mL in the test on Escherichia coli [2]; 12.5 µg/mL (≈ 41.7 µM) with Bacillus subtilis [3]; 6.25 µg/mL (≈ 20.8 µM) in the test on Staphylococcus aureus [5]; 50 µg/mL (≈ 167 µM) with Pseudomonas aeruginosa [6]; above 50 µg/mL in the test with Klebsiella pneumoniae; 25 µg/mL (≈ 83.4 µM) in test [8].
`COc1ccc(-c2nnn3c2-c2ccccc2SC3)cc1`: the minimal inhibitory concentration (MIC) in the test on Escherichia coli [2] is above 50 µg/mL; in the test with Bacillus subtilis [3], 50 µg/mL (≈ 169 µM); in the test with Staphylococcus aureus [5] it was above 50 µg/mL; in the test on Pseudomonas aeruginosa [6], above 50 µg/mL; in the test on Klebsiella pneumoniae, above 50 µg/mL; in [8], above 50 µg/mL.
Turning to `Cc1cccc(-c2nnn3c2-c2ccccc2S(=O)(=O)C3)c1`, the minimal inhibitory concentration (MIC) in the test on Escherichia coli [2] was above 50 µg/mL; in the test with Bacillus subtilis [3], 50 µg/mL (≈ 161 µM); in the test with Staphylococcus aureus [5] it was above 50 µg/mL; in the test on Pseudomonas aeruginosa [6], above 50 µg/mL; in the test with Klebsiella pneumoniae it was above 50 µg/mL; in test [8] it was 50 µg/mL (≈ 161 µM).
On to `COc1cccc(-c2nnn3c2-c2ccccc2S(=O)(=O)C3)c1`, for which the BIC is 3.5 µg/mL in the test with Bacillus subtilis [1]; 4.2 µg/mL with Staphylococcus aureus [4]; 47.3 µg/mL in the test on Pseudomonas aeruginosa [7]; 24.8 µg/mL in [9]; 52.3 µg/mL in the test on Escherichia coli [10]. Moreover, the MIC in the test on Escherichia coli [2] came out at 50 µg/mL (≈ 153 µM); in the test on Bacillus subtilis [3] it was 6.25 µg/mL (≈ 19.1 µM); with Staphylococcus aureus [5], 6.25 µg/mL (≈ 19.1 µM); in the test with Pseudomonas aeruginosa [6], 50 µg/mL (≈ 153 µM); with Klebsiella pneumoniae, 25 µg/mL (≈ 76.4 µM); in test [8] it was 12.5 µg/mL (≈ 38.2 µM).
As to `COc1cccc(-c2nnn3c2-c2ccccc2SC3)c1`, the MIC in the test with Escherichia coli [2] was 50 µg/mL (≈ 169 µM); with Bacillus subtilis [3] it was 25 µg/mL (≈ 84.6 µM); in the test with Staphylococcus aureus [5] it was 25 µg/mL (≈ 84.6 µM); in the test on Pseudomonas aeruginosa [6], above 50 µg/mL; with Klebsiella pneumoniae it was above 50 µg/mL; in test [8], 50 µg/mL (≈ 169 µM).
For `O=S1(=O)Cn2nnc(-c3ccccc3)c2-c2ccccc21`, the minimum inhibitory concentration (MIC) in the test on Escherichia coli [2] is above 50 µg/mL; with Bacillus subtilis [3] it was 50 µg/mL (≈ 168 µM); with Staphylococcus aureus [5] it was 25 µg/mL (≈ 84.1 µM); in the test with Pseudomonas aeruginosa [6], above 50 µg/mL; with Klebsiella pneumoniae, above 50 µg/mL; in test [8] it was 25 µg/mL (≈ 84.1 µM).
As to `O=S1(=O)Cn2nnc(-c3ccc(Br)cc3)c2-c2ccccc21`, the BIC in the test with Bacillus subtilis [1] worked out at 23.9 µg/mL; in the test with Staphylococcus aureus [4] it was 28.1 µg/mL; with Pseudomonas aeruginosa [7] it was 20.4 µg/mL; in [9], 57.6 µg/mL; in the test on Escherichia coli [10] it was 10.9 µg/mL. The minimum inhibitory concentration (MIC) in the test with Escherichia coli [2] is 6.25 µg/mL (≈ 16.6 µM); in the test on Bacillus subtilis [3] it was 12.5 µg/mL (≈ 33.2 µM); with Staphylococcus aureus [5], 25 µg/mL (≈ 66.4 µM); with Pseudomonas aeruginosa [6], 25 µg/mL (≈ 66.4 µM); in the test with Klebsiella pneumoniae it was 50 µg/mL (≈ 133 µM); in test [8] it was 50 µg/mL (≈ 133 µM).
Take `Cc1cccc(-c2nnn3c2-c2ccccc2SC3)c1`: the MIC (in the test with Escherichia coli [2]; with Bacillus subtilis [3]; with Staphylococcus aureus [5]; with Pseudomonas aeruginosa [6]; in the test on Klebsiella pneumoniae; in test [8]) was above 50 µg/mL in each case.
Consider `O=S1(=O)Cn2nnc(-c3ccccc3Cl)c2-c2ccccc21`, for which the BIC in the test with Bacillus subtilis [1] is 4.15 µg/mL; in the test on Staphylococcus aureus [4], 5.88 µg/mL; with Pseudomonas aeruginosa [7], 22.8 µg/mL; in test [9], 2.94 µg/mL; with Escherichia coli [10], 48 µg/mL. In addition, the MIC was determined as 50 µg/mL (≈ 151 µM) with Escherichia coli [2]; 3.12 µg/mL (≈ 9.4 µM) in the test on Bacillus subtilis [3]; 6.25 µg/mL (≈ 18.8 µM) with Staphylococcus aureus [5]; 25 µg/mL (≈ 75.4 µM) with Pseudomonas aeruginosa [6]; 50 µg/mL (≈ 151 µM) in the test with Klebsiella pneumoniae; 3.12 µg/mL (≈ 9.4 µM) in test [8]. The Ratio (in the test on Bacillus subtilis [11]; in test [12]) was 2 each time.
For `Cc1ccc(-c2nnn3c2-c2ccccc2S(=O)(=O)C3)cc1`, the MIC turned out to be 25 µg/mL (≈ 80.3 µM) with Escherichia coli [2]; 25 µg/mL (≈ 80.3 µM) in the test on Bacillus subtilis [3]; 50 µg/mL (≈ 161 µM) in the test on Staphylococcus aureus [5]; 50 µg/mL (≈ 161 µM) with Pseudomonas aeruginosa [6]; 50 µg/mL (≈ 161 µM) in the test on Klebsiella pneumoniae; 25 µg/mL (≈ 80.3 µM) in test [8].
Turning to `Brc1ccc(-c2nnn3c2-c2ccccc2SC3)cc1`, the MIC is 25 µg/mL (≈ 72.6 µM) with Escherichia coli [2]; above 50 µg/mL with Bacillus subtilis [3]; 50 µg/mL (≈ 145 µM) in the test on Staphylococcus aureus [5]; above 50 µg/mL in the test on Pseudomonas aeruginosa [6]; 50 µg/mL (≈ 145 µM) in the test on Klebsiella pneumoniae; above 50 µg/mL in test [8].
As for `COc1ccc(-c2nnn3c2-c2ccccc2S(=O)(=O)C3)cc1`, the MIC in the test with Escherichia coli [2] is above 50 µg/mL; with Bacillus subtilis [3], 25 µg/mL (≈ 76.4 µM); with Staphylococcus aureus [5] it was 50 µg/mL (≈ 153 µM); in the test with Pseudomonas aeruginosa [6], above 50 µg/mL; with Klebsiella pneumoniae, above 50 µg/mL; in [8], 25 µg/mL (≈ 76.4 µM).
Take `Cc1ccc(-c2nnn3c2-c2ccccc2SC3)cc1`: the MIC in the test on Escherichia coli [2] was above 50 µg/mL; in the test with Bacillus subtilis [3] it was 50 µg/mL (≈ 179 µM); in the test on Staphylococcus aureus [5], above 50 µg/mL; with Pseudomonas aeruginosa [6], 50 µg/mL (≈ 179 µM); with Klebsiella pneumoniae, 50 µg/mL (≈ 179 µM); in test [8], 50 µg/mL (≈ 179 µM).
Consider `O=C(O)c1cn(C2CC2)c2cc(N3CCNCC3)c(F)cc2c1=O` [CIPROFLOXACIN], for which the BIC came to 5.5 µg/mL in the test on Bacillus subtilis [1]; 4.88 µg/mL in the test with Staphylococcus aureus [4]; 2.75 µg/mL in the test with Pseudomonas aeruginosa [7]; 2.24 µg/mL in test [9]; 4.29 µg/mL in the test with Escherichia coli [10]. Moreover, the MIC with Bacillus subtilis [3] was 6.25 µg/mL (≈ 18.9 µM); in the test with Staphylococcus aureus [5], 3.12 µg/mL (≈ 9.42 µM); with Pseudomonas aeruginosa [6], 1.56 µg/mL (≈ 4.71 µM); in the test on Klebsiella pneumoniae, 3.12 µg/mL (≈ 9.42 µM); in test [8] it was 6.25 µg/mL (≈ 18.9 µM).
